pEC50: −log10 of the molar value.
What was measured:
[1] = system: pLai RLuc reporter virus in MT-4 cells; assay: HIV MT-4 serum shift antiviral reporter assay; assay type: cell-based; conditions: Human immunodeficiency virus 1, MT4, 72 h, read-out: RLUC CCM
In short: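 MT-4 cells pre-infected 2 h with reporter virus, then dosed (1:3 dilutions) in medium with 10% FBS alone or plus 50% human serum; 72 h at 37 °C. Renilla luminescence read; EC50 = 50% signal decrease by sigmoidal fit, serum shift = EC50(HS)/EC50(no HS).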

[2] = Cytotoxicity assay in MT-4 cells; assay type: cell-based; conditions: human, uninfected MT-4 cells, Cell Titer Glo
In short: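 Uninfected MT-4 cells were incubated with 1:3 serially diluted compound in RPMI/10% FBS for 5 days at 37° C. Viability was read by CellTiter-Glo luminescence, with 10 μM puromycin as the baseline cytotoxicity control. Values are the concentration giving a 50% decrease in luminescence, from sigmoidal dose-response fits.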

[3] = system: HIV-1 (IIIB) in MT-4 cells; assay: HIV MT-4 antiviral assay; assay type: cell-based; conditions: Human immunodeficiency virus 1, MT4, 120 h, 5 days, Cell Titer Glo
In short: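 MT-4 cells infected with HIV-1 IIIB (1:250 dilution of concentrated stock) were incubated 5 days at 37 °C with compound in 1:3 serial dilutions in RPMI/10% FBS. Viability was read by CellTiter-Glo luminescence. EC50 was the concentration causing a 50% decrease in luminescence signal, from sigmoidal dose-response fits.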

[4] = High throughput microsomal stability assay (human liver microsomes); assay type: in vitro ADME; conditions: human liver microsomes, 1 uM compound, NADPH + UDPGA cofactors, 37 C
In short: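 Compounds at 1 uM final, incubated at 37° C. with liver microsomes (2 mg/ml stock, alamethicin-treated) in pH 7.4 phosphate plus NADPH-regenerating/UDPGA cofactors; samples taken 0–70 min. Parent/IS peak-area ratios read by RapidFire QToF MS; half-life from linear fit of initial log decay, scaled to intrinsic clearance.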

CO[C@H]1CC[C@H](CF)N2C[C@H]1n1cc(C(=O)NCc3ccc(F)cc3F)c(=O)c(O)c1C2=O [Example 41, (3R,6S,7R)—N-(2,4-difluorobenzyl)-3-(fluoromethyl)-12-hydroxy-6-methoxy-1,11-dioxo-1,4,5,6,7,11-hexahydro-3H-2,7-methanopyrido[1,2-a][1,4]diazonine-10-carboxamide]
pEC50 [1]: 9.25
CC50 at 5 days [2]: 19400 nM
pEC50 [3]: 8.77
HLM stability [4]: 1.83 mL/min/kg

CO[C@H]1CC[C@@H](C)N2C[C@H]1n1cc(C(=O)NCc3ccc(F)cc3F)c(=O)c(O)c1C2=O [Example 42, (3R,6S,7R)—N-(2,4-difluorobenzyl)-12-hydroxy-6-methoxy-3-methyl-1,11-dioxo-1,4,5,6,7,11-hexahydro-3H-2,7-methanopyrido[1,2-a][1,4]diazonine-10-carboxamide]
pEC50 [1]: 9.21
CC50 at 5 days [2]: 50000 nM
pEC50 [3]: 8.72
HLM stability [4]: 9.67 mL/min/kg

C[C@H]1CC[C@H](O)[C@@]2(C)CN1C(=O)c1c(O)c(=O)c(C(=O)NCc3ccc(F)cc3F)cn12 [Example 43, (3S,6S,7R)—N-(2,4-difluorobenzyl)-6,12-dihydroxy-3,7-dimethyl-1,11-dioxo-1,4,5,6,7,11-hexahydro-3H-2,7-methanopyrido[1,2-a][1,4]diazonine-10-carboxamide]
pEC50 [1]: 9.15
CC50 at 5 days [2]: 23600 nM
pEC50 [3]: 8.89
HLM stability [4]: 4.83 mL/min/kg

C[C@H]1CC[C@@](O)(CF)[C@H]2CN1C(=O)c1c(O)c(=O)c(C(=O)NCc3c(F)cc(F)cc3F)cn12 [Example 44, (3S,6S,7R)-6-(fluoromethyl)-6,12-dihydroxy-3-methyl-1,11-dioxo-N-(2,4,6-trifluorobenzyl)-1,4,5,6,7,11-hexahydro-3H-2,7-methanopyrido[1,2-a][1,4]diazonine-10-carboxamide]
pEC50 [1]: 8.72
CC50 at 5 days [2]: 44700 nM
pEC50 [3]: 8.40
HLM stability [4]: 3.67 mL/min/kg

C[C@H]1[C@H]2CO[C@H](C2)[C@H]2CN1C(=O)c1c(O)c(=O)c(C(=O)NCc3ccc(F)cc3F)cn12 [Example 45, (3S,4S,7R,8R)—N-(2,4-difluorobenzyl)-13-hydroxy-3-methyl-1,12-dioxo-1,4,5,7,8,12-hexahydro-3H-2,8:4,7-dimethanopyrido[1,2-d][1,4,7]oxadiazecine-11-carboxamide]
pEC50 [1]: 9.34
CC50 at 5 days [2]: 12400 nM
pEC50 [3]: 8.72
HLM stability [4]: 2.83 mL/min/kg
